# Test system: myocardial infarction-induced rats
# Test: Relative perfusion of the heart (99mTc-tetrofosmin autoradiography) in myocardial infarction model rats
# Format: in vivo, Sprague-Dawley rats
# Conditions: 200 μL through an apical puncture, after one week
# Protocol: First, 8-week-old Sprague-Dawley rats were purchased from Orientbio Inc., and acclimated for 3 days under conditions such as a temperature of 22±3° C., a relative humidity of 60±20%, an air ventilation cycle of 10 to 20 times/hour, a 12-hour light/dark cycle (light on 08:00 A.M. and light off 08:00 P.M.), sterile feed, and water supplies. […] After a week, ^99mtechnetium (Tc)-tetrofosmin was used as a myocardial perfusion imaging agent to obtain an autoradiographic images of rat hearts, and the relative perfusion was measured using a method represented by the following Equation 1 to evaluate an therapeutic effect of the VEGF-derived peptide. Relative perfusion (%)={(Activity value of ^99mTc-tetrofosmin in cardiac ischemic area)/Activity value of ^99mTc-tetrofosmin in septum)}×100 [Equation 1]
# All the subsequent statistical analyses were performed using SAS ver. 9.2 (SAS Institute, Cary, US), the significance of difference was determined using a Duncan's multiple range test (MRT) and ANOVA, and a significant difference at p<0.05 was evaluated. All data was assumed to be significant within a range of 5%, and represented by an average±standard deviation (SD).
substance,measurement,value
Ac-MRIKPHQGQHI-NH2 [VEGF-derived peptide],perfusion-improving effect (relative perfusion) compared to the control (PBS),significant results were not observed

# From patent US10617641B2, “Composition for preventing or treating ischemic diseases, containing liposomes in which VEGF-derived peptides are supported” (INDUSTRIAL COOPERATION FOUNDATION CHONBUK NATIONAL …, priority 2015, dated 2020)
